Assay results from patent US20260240832A1, “USE OF NITROXOLINE COMPOUND IN ENHANCING EFFECT OF ANTIBACTERIAL AGENT” (Jiangsu Yahong Meditech Co., Ltd., priority 2022, published 2026).

Columns and labels:
Format in all cases: cell-based
[1] = tested on: carbapenem-resistant Acinetobacter baumannii; assay: Chessboard microbroth dilution MIC/FIC, compound 1 in combination with polymyxin; conditions: for MIC: Acinetobacter baumannii, read-out: Compound 1 MIC alone; for Compound 1 MIC in combination: with polymyxin
Source text: This experiment is designed to determine the minimum inhibitory concentration (MIC) of compound 1 in combination with polymyxin against carbapenem-resistant Acinetobacter baumannii and to calculate the fractional inhibitory concentration (FIC) index.
(§1) Test bacteria: 10 strains of carbapenem-resistant Acinetobacter baumannii are clinically isolated strains, and are provided by Shanghai Junji Medical Laboratory Co., Ltd.
(§2) According to the recommendation of the Clinical and Laboratory Standards Institute (CLSI), the microbroth dilution method designed by the chessboard method was used to determine the minimum inhibitory concentration (MIC) of compound 1 in combination with polymyxin against the above strains, and the fractional inhibitory concentration (FIC) index was calculated.
(§3) Compound 1 was dissolved in dimethyl sulfoxide to obtain a stock solution I with a concentration of 51200 mg/L. The stock solution I was subjected to 1:1 gradient dilution with dimethyl sulfoxide to obtain a dilution solution with a concentration range of 51200 to 25 mg/L. The corresponding concentrations were added to sterile water for 100-fold dilution to obtain working solution I with a concentration range of 512 to 0.25 mg/L.
Polymyxin was dissolved in sterile water to obtain a stock solution with a concentration of 5120 mg/L. The polymyxin stock solution was subjected to 1:1 gradient dilution with sterile water to obtain a working solution II with a concentration range of 512 to 0.25 mg/L.
(§4) According to the method in Example 1, a drug sensitive plate was prepared with working solution I and working solution II, and the specific process will not be repeated here.
(§5) (2) The culture medium of the bacterial solution: Cation-Adjusted Mueller-Hinton Broth (CAMHB), a product of BBL, USA, batch number 9015952.
(§6) (3) Formulation method of bacterial solution: According to the direct colony suspension method, the test bacteria cultured overnight were prepared into a 0.5 McFarland turbidity tube using physiological saline. Then, the resulting solution was dilute 100 times with the above culture medium. 100 μL of the resulting bacterial solution was mixed well with the solution (100 μL) in each well of the drug sensitivity plate, and the final inoculation amount was 10^5 CFU/mL.
(§7) (4) Culture conditions: Culturing at 35±2° C. for 20 hours in air.
(§8) (1) The experimental results were determined according to the standard of CLSI 2020 M100 30th edition.
(§9) wherein: FIC≤0.5 indicates synergistic effect; 0.5<FIC≤1.0 indicates additive effect; 1<FIC≤2.0 indicates irrelevant effect; and FIC>2 indicates antagonistic effect.

[2] = tested on: carbapenem-resistant Acinetobacter baumannii; assay: Chessboard microbroth dilution MIC/FIC, compound A in combination with meropenem; conditions: for MIC: Acinetobacter baumannii, read-out: Meropenem MIC alone; for Meropenem MIC in combination: with compound A
Source text: This experiment is designed to determine the minimum inhibitory concentration (MIC) of compound A in combination with meropenem against carbapenem-resistant Acinetobacter baumannii and to calculate the fractional inhibitory concentration (FIC) index.
as §1
as §2, with “A” for “1”, “meropenem” for “polymyxin”
as §3, with “Compound A” for “Compound 1”
Meropenem was dissolved in sterile water to obtain a stock solution with a concentration of 5120 mg/L. The […] stock solution was subjected to 1:1 gradient dilution with sterile water to obtain a working solution II with a concentration range of 512 to 0.25 mg/L.
as §4, §5, §6, §7, §8, §9

[3] = tested on: drug-resistant Escherichia coli 1864; assay: MIC of antibiotics against drug-resistant Escherichia coli II (resistance profile of the strain); conditions: drug-resistant Escherichia coli 1864; read-out: MIC
Source text: 1 strain of drug-resistant Escherichia coli II, namely drug-resistant Escherichia coli 1864, is provided by the School of Pharmacy of Fudan University. This strain is resistant to fluoroquinolone antibiotics (such as levofloxacin), non-fluoroquinolone antibiotics (such as nalidixic acid, nemofloxacin), aminoglycoside antibiotics (such as gentamicin), glycopeptide antibiotics (such as vancomycin) and carbapenem antibiotics (such as meropenem).

[4] = strain 18-J11-001, compound 1 + polymyxin
[5] = strain 18-J11-002, compound 1 + polymyxin
[6] = strain 18-J11-034, compound 1 + polymyxin
[7] = strain 18-J11-097, compound 1 + polymyxin
[8] = strain 18-J15-030, compound 1 + polymyxin
[9] = strain 18-J21-095, compound 1 + polymyxin
[10] = strain 18-J24-015, compound 1 + polymyxin
[11] = strain 18-J24-033, compound 1 + polymyxin
[12] = strain 18-J40-021, compound 1 + polymyxin
[13] = strain 18-J51-052, compound 1 + polymyxin

O=[N+]([O-])c1c(Br)c(Cl)c2cccnc2c1O [Compound 1, 6-bromo-5-chloro-7-nitroquinolin-8-ol]
MIC ([1]; strain 18-J11-001): 8 µg/mL | MIC ([1]; strain 18-J11-002): 4 µg/mL | MIC ([1]; strain 18-J11-034): 4 µg/mL | MIC ([1]; strain 18-J11-097): 4 µg/mL | MIC ([1]; strain 18-J15-030): 16 µg/mL | MIC ([1]; strain 18-J21-095): 8 µg/mL | MIC ([1]; strain 18-J24-015): 8 µg/mL | MIC ([1]; strain 18-J24-033): 4 µg/mL | MIC ([1]; strain 18-J40-021): 8 µg/mL | MIC ([1]; strain 18-J51-052): 4 µg/mL | change of the MIC of polymyxin by the combination ([1]; compound 1 + polymyxin): significantly reduce | effect of the combination (summary of Table 2) ([1]; compound 1 + polymyxin): synergistic effect (FIC≤0.5 indicates synergistic effect) | FIC index [1, 4]: 0.303 | Results [1, 4]: Synergistic | Compound 1 MIC in combination ([1]; strain 18-J11-001): 0.5 mg/L | FIC index [1, 5]: 0.740 | Results [1, 5]: Additive | Compound 1 MIC in combination ([1]; strain 18-J11-002): 2 mg/L | FIC index [1, 6]: 0.500 | Results [1, 6]: Synergistic | Compound 1 MIC in combination ([1]; strain 18-J11-034): 1 mg/L | FIC index [1, 7]: 0.365 | Results [1, 7]: Synergistic | Compound 1 MIC in combination ([1]; strain 18-J11-097): 0.5 mg/L | FIC index [1, 8]: 0.313 | Results [1, 8]: Synergistic | Compound 1 MIC in combination ([1]; strain 18-J15-030): 1 mg/L | FIC index [1, 9]: 0.740 | Results [1, 9]: Additive | Compound 1 MIC in combination ([1]; strain 18-J21-095): 4 mg/L | FIC index [1, 10]: 0.375 | Results [1, 10]: Synergistic | Compound 1 MIC in combination ([1]; strain 18-J24-015): 1 mg/L | FIC index [1, 11]: 0.500 | Results [1, 11]: Synergistic | Compound 1 MIC in combination ([1]; strain 18-J24-033): 1 mg/L | FIC index [1, 12]: 0.250 | Results [1, 12]: Synergistic | Compound 1 MIC in combination ([1]; strain 18-J40-021): 1 mg/L | FIC index [1, 13]: 0.750 | Results [1, 13]: Additive | Compound 1 MIC in combination ([1]; strain 18-J51-052): 2 mg/L

C[C@@H](O)[C@H]1C(=O)N2C(C(=O)O)=C(S[C@@H]3CN[C@H](C(=O)N(C)C)C3)[C@H](C)[C@H]12 [Meropenem, reference compound]
MIC ([2]; strain No. 1): 128 µg/mL | MIC ([2]; strain No. 2): 128 µg/mL | MIC ([2]; strain No. 3): 128 µg/mL | MIC ([2]; strain No. 4): 128 µg/mL | MIC ([2]; strain No. 5): 128 µg/mL | MIC ([2]; strain No. 6): 128 µg/mL | MIC ([2]; strain No. 7): 64 µg/mL | MIC ([2]; strain No. 8): 64 µg/mL | MIC ([2]; strain No. 9): 64 µg/mL | MIC ([2]; strain No. 10): 128 µg/mL | Meropenem MIC in combination ([2]; strain No. 1): 16 mg/L | Meropenem MIC in combination ([2]; strain No. 2): 16 mg/L | Meropenem MIC in combination ([2]; strain No. 3): 16 mg/L | Meropenem MIC in combination ([2]; strain No. 4): 16 mg/L | Meropenem MIC in combination ([2]; strain No. 5): 16 mg/L | Meropenem MIC in combination ([2]; strain No. 6): 16 mg/L | Meropenem MIC in combination ([2]; strain No. 7): 16 mg/L | Meropenem MIC in combination ([2]; strain No. 8): 8 mg/L | Meropenem MIC in combination ([2]; strain No. 9): 8 mg/L | Meropenem MIC in combination ([2]; strain No. 10): 16 mg/L | MIC [3]: > 64 µg/mL
